These results are taken from patent US9810687B2, “Nanocomposites and methods of making same” (BOARD OF TRUSTEES OF THE UNIVERSITY OF ARKANSAS, priority 2013, dated 2017).

Assay [1] deals with human pancreatic cancer cell line Panc-1. Briefly: Anticancer/apoptotic effects of PTL, DMAPT and their fGn complexes. The conditions noted are these: drug alone or as mixture with fGn.
Description: A water-soluble PTL analog, dimethylaminoparthenolide (DMAPT), was also examined for comparison with the anticancer efficacy of our PTL-fGn complex.
PTL was obtained from Sigma-Aldrich (USA). […] PTL and DMAPT were dissolved in DMSO to create 10 mM stock solutions. To create the PTL-fGn and DMAPT-fGn complexes, the drug was added to fGn solution in media (final drug-fGn complex concentrations were 1, 10, 20, 30, 50, and 100 mM drug and 10 mg/ml fGn), sonicated for 1 h, and then stored at 4° C. before being incubated with cancer cell, such as, Panc-1 cells, or being delivered to a patient.
Another assay deals with MCF-7. Kind of assay: Cytotoxicity of GA delivered by Gn and SWCNT, breast cancer cells. The assay is classed as cell-based, human. The conditions noted are these: breast cancer cells in vitro. On the procedure:
(§1) In this example, Gn and SWCNT were used to deliver the natural low-toxicity drug GA to breast and pancreatic cancer cells in vitro, and the effectiveness of this complex in suppressing cellular integrity was assessed. Cytotoxicity was assessed by measuring lactate dehydrogenase release, mitochondria dehydrogenase activity, mitochondrial membrane depolarization, DNA fragmentation, intracellular lipid content, and membrane permeability/caspase activity. […] This analysis represents a first step toward assessing their effectiveness in more complex, targeted, nanodelivery systems.
(§2) Gn and SWCNT (10 μg/ml) were mixed with GA (0.5, 0.75 and 1 μg/ml) to be described as GA+Gn and GA+SWCNT. First, the samples were vortexed at a high speed for at least 4 h to allow the drug to bind to the nanomaterials via π-π stacking. […] The loading concentrations of the GA on Gn and SWCNT were determined by UV-Vis absorbance at 360 nm measured using a Shimadzu UV-3600 spectrophotometer (Shimadzu Scientific Instruments, Colombia, Me., USA).
(§3) The amount of drug loaded was calculated by peak absorbance at 360 nm after subtracting the background of absorbance from Gn and SWCNT. It is determined that, after vortexing, 98% of the free GA was bound to the Gn (GA−Gn=0.98: 10 μg/ml) and that 88% was bound to the SWCNT (GA−SWCNT=0.88: 10 μg/ml).

Another assay has as its system Panc-1. Briefly: Cytotoxicity of GA delivered by Gn and SWCNT, pancreatic cancer cells. In kind it is cell-based, human. To be noted: pancreatic cancer cells in vitro. On the procedure: as §1, §2, §3

For the compound `C/C1=C\CC[C@@]2(C)O[C@@H]2[C@H]2OC(=O)[C@H](CN(C)C)[C@@H]2CC1` [DMAPT, dimethylaminoparthenolide], the IC50 entry in assay [1] is reported as “significantly higher than that for PTL-fGn”.

On to `CC(C)=CCC[C@]1(C)C=Cc2c(O)c3c(c(CC=C(C)C)c2O1)O[C@]12C(=C[C@@H]4C[C@H]1C(C)(C)O[C@@]2(C/C=C(/C)C(=O)O)C4=O)C3=O` [GA, Gambogic Acid], for which the “antiproliferative effects upon nanodelivery” value in the assay with MCF-7 and with Panc-1 was “significantly enhanced” each time.
